Here are results for two compounds from patent US20170136021A1, “METHODS AND COMPOSITIONS FOR TREATING ENVELOPED VIRUSES” (priority 2014, published 2017).

pEC50, pIC50: −log10 of the molar value.

The subject of assay [1] is Ebola virus. Set-up: species or system mice. To be noted: mouse, in vivo.
In assay [2] the test system is Ebola virus. The experiment in a line: microbe, parasite or virus in culture. Format: cell-based. To be noted: for pEC50: Zaire ebolavirus, Vero, read-out: EC50 of Ebola infection.
For assay [3], the system named is rVSV-EBOV-GP. As to the kind of experiment: organism not typed. Format: cell-based, vesicular stomatitis virus expressing EBOV glycoprotein.
Assay [4] has as its system Ebola virus. Format: cell-based.

As to `C#Cc1cccc(Nc2ncnc3cc(OCCOC)c(OCCOC)cc23)c1` [erlotinib], in assay [1], the “mortality of Ebola infected mice” value is listed as “reduces”. Besides, in assay [1] (30 mg/kg), the percentage survival turned out to be 100%. For the same compound, in assay [2], the “overall infection with Ebola virus” value is on record as “dose-dependent reduction” and the pEC50 (as a rule, −log10 of the EC50, conventionally taken in molar units) was 5.37. Further, the Ebola entry entry in assay [3] was “reduced Ebola entry in a dose-dependent manner”. Also, in assay [4], the “Ebola replication in cells” value is recorded as “reduces” and the “percentage of Ebola positive cells versus concentration (inhibition of Ebola)” value is recorded as “inhibition of Ebola by erlotinib in a dose-dependent manner”.

Take `CCN(CC)CCNC(=O)c1c(C)[nH]c(/C=C2\C(=O)Nc3ccc(F)cc32)c1C` [sunitinib]: the pEC50 in assay [2] was 5.65. Further, the pIC50 (in general, the negative decadic logarithm of the IC50, by convention in mol/L) in assay [3] (Vero, 20 h, read-out: IC50 of viral entry inhibition) was 5.21.
